Experimental data reported in ChEMBL document CHEMBL2417463, “Synthesis and identification of new flavonoids targeting liver X receptor β involved pathway as potential facilitators of Aβ clearance with reduced lipid accumulation” (J Med Chem, 2013).
Activity calls are given as the source filed them. No cut-off for these calls is given here.

Assays:
Format in all cases: cell-based
[1] = biological target: T1, Oxysterols receptor LXR-beta (Homo sapiens) (UniProt P55055); experiment: Agonist activity at human LXRbeta transfected in HEK293 cells at 0.1 uM after 24 hrs by luciferase reporter gene assay relative to vehicle-treated control
T1 sequence (whole entry): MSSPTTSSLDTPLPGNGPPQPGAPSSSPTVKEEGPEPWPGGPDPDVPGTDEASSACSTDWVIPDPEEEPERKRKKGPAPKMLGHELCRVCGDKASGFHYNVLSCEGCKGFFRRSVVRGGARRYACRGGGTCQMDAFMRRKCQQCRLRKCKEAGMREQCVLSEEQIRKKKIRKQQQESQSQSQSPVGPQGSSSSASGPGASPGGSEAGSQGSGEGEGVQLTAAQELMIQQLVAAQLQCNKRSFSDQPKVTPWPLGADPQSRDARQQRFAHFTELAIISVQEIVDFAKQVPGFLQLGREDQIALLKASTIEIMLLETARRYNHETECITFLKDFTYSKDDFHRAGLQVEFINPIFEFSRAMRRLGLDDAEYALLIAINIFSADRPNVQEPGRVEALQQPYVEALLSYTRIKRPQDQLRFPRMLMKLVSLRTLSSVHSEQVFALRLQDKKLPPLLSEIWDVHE

[2] = biological target: T2, Oxysterols receptor LXR-alpha (Homo sapiens) (UniProt Q13133); experiment: Agonist activity at human LXRalpha transfected in HEK293 cells at 1 uM after 24 hrs by luciferase reporter gene assay relative to vehicle-treated control
T2 sequence (whole entry): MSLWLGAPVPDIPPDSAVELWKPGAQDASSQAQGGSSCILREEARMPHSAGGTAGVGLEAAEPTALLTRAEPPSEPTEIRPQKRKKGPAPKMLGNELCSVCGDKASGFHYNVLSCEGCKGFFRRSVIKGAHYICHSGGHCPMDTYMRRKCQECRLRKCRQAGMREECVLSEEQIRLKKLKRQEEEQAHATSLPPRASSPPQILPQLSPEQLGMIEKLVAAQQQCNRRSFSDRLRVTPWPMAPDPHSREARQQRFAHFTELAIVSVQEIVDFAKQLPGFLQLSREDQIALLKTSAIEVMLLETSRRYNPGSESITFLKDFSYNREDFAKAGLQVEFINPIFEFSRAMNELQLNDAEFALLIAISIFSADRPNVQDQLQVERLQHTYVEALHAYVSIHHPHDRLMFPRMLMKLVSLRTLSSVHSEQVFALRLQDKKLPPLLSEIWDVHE

[3] = biological target: T2, Oxysterols receptor LXR-alpha (Homo sapiens); experiment: Agonist activity at human LXRalpha transfected in HEK293 cells at 0.1 uM after 24 hrs by luciferase reporter gene assay relative to vehicle-treated control
[4] = biological target: T3, Oxysterols receptor LXR-beta (Mus musculus) (UniProt Q60644); experiment: Agonist activity at LXRbeta in mouse RAW264.7 cells assessed as induction of ABCA1 promoter activation at 1 uM after 24 hrs by Dual-Glo luciferase reporter gene assay relative to vehicle-treated control
T3 sequence (whole entry): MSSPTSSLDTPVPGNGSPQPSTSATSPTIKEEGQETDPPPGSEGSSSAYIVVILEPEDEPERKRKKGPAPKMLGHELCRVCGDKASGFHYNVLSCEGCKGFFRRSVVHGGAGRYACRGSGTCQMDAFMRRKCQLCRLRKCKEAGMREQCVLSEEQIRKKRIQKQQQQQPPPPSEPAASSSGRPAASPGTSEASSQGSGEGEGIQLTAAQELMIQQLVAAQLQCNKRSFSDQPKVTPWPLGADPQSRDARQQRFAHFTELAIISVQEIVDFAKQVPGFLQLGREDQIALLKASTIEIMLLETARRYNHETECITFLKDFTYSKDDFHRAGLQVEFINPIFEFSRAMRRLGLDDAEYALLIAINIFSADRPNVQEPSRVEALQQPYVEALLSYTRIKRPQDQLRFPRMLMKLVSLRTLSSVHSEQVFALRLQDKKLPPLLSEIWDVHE

[5] = test system: HEK293; experiment: Cytotoxicity against HEK293 cells assessed as inhibition of cell viability at 50 uM after 48 hrs by SRB assay relative to vehicle-treated control; conditions: human, hek293, 48 h
[6] = Cytotoxicity against human HepG2 cells assessed as inhibition of cell viability at 50 uM after 48 hrs by SRB assay relative to vehicle-treated control; conditions: HepG2 cells, read-out: Activity
[7] = test system: BV-2; experiment: Cytotoxicity against mouse BV2 cells assessed as inhibition of cell viability at 50 uM after 48 hrs by SRB assay relative to vehicle-treated control; conditions: bv-2, 48 h
[8] = test system: RAW264.7; experiment: Cytotoxicity against mouse RAW264.7 cells assessed as inhibition of cell viability at 50 uM after 48 hrs by SRB assay relative to vehicle-treated control; conditions: raw264.7, 48 h
[9] = test system: HepG2; experiment: Induction of cytoplasmic lipid accumulation in human HepG2 cells at 10 uM after 4 days by oil red O staining-based light microscopic analysis; conditions: hepg2, 96 h
[10] = test system: HepG2; experiment: Induction of intracellular triglyceride accumulation in human HepG2 cells at 10 uM after 4 days relative to vehicle-treated control; conditions: hepg2, 96 h
[11] = test system: HepG2; experiment: Induction of intracellular triglyceride accumulation in human HepG2 cells at 1 uM after 4 days relative to vehicle-treated control; conditions: hepg2, 96 h
[12] = biological target: T3, Oxysterols receptor LXR-beta (Mus musculus); experiment: Agonist activity at LXRbeta in mouse BV2 cells assessed as degradation of intracellular soluble amyloid beta42 at 1 uM preincubated for 18 hrs followed by soluble amyloid beta42 addition measured after 24 hrs by ELISA relative to vehicle-treated control; conditions: BV-2
[13] = biological target: T3, Oxysterols receptor LXR-beta (Mus musculus); experiment: Agonist activity at LXRbeta in mouse BV2 cells assessed as upregulation of apoE protein expression at 1 uM after 48 hrs by Western blot analysis relative to vehicle-treated control; conditions: BV-2
[14] = biological target: T3, Oxysterols receptor LXR-beta (Mus musculus); experiment: Agonist activity at LXRbeta in mouse BV2 cells assessed as upregulation of apoE protein expression at 0.1 uM after 48 hrs by Western blot analysis relative to vehicle-treated control; conditions: BV-2
[15] = biological target: T3, Oxysterols receptor LXR-beta (Mus musculus); experiment: Agonist activity at LXRbeta in mouse BV2 cells assessed as upregulation of ABCA1 protein expression after 12 to 48 hrs by Western blot analysis; conditions: BV-2
[16] = biological target: T3, Oxysterols receptor LXR-beta (Mus musculus); experiment: Agonist activity at LXRbeta in mouse BV2 cells assessed as upregulation of ABCA1 protein expression at 1 uM after 12 to 48 hrs by Western blot analysis; conditions: BV-2
[17] = biological target: T3, Oxysterols receptor LXR-beta (Mus musculus); experiment: Agonist activity at LXRbeta in mouse RAW264.7 cells assessed as upregulation of ABCA1 protein expression after 18 to 48 hrs by Western blot analysis
[18] = biological target: T3, Oxysterols receptor LXR-beta (Mus musculus); experiment: Agonist activity at LXRbeta in mouse RAW264.7 cells assessed as upregulation of ABCA1 protein expression at 1 uM after 18 to 48 hrs by Western blot analysis
[19] = biological target: T1, Oxysterols receptor LXR-beta (Homo sapiens); experiment: Agonist activity at human LXRbeta transfected in HEK293 cells at 1 uM after 24 hrs by luciferase reporter gene assay relative to vehicle-treated control

Work on `O=c1cc(-c2c[nH]c3ccccc23)oc2cc(O)ccc12` yielded a fold change (FC) [1] of 1.19, a fold change (FC) [2] of 1.02 and a fold change (FC) [3] of 1.32. For the same compound, the fold change (FC) [4] was 1.9, the Activity [5] was “Non-toxic” and the inhibition at 48 h, 50 µM [6] was 45%. For the same compound, the Activity [7] was “Non-toxic”, the Activity [8] was “Non-toxic” and the Activity [9] was “Toxic”. For the same compound, the Activity [10] was 18%, the Activity [11] was -6% and the Activity [12] was 38%. For the same compound, the fold change (FC) [13] was 1.4, the fold change (FC) [14] was 1.1 and the Activity [15] was “Dose-dependent effect”. For the same compound, the Activity [16] was “Active”, the Activity [17] was “Dose-dependent effect” and the Activity [18] was “Active”. It also gave a fold change (FC) [19] of 1.76.
